In ChEMBL document CHEMBL1201862, “PubChem BioAssay data set” (2004):
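Interpolation was linear, between the two tested concentrations surrounding the appropriate level; five concentrations were tested over 48 hours in 96-well plates. The concentration for 50% growth inhibition is given as GI50.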 Active and inactive are the calls of the source. Cut-off read from the data, not from the text of the source: active = GI50 up to about 1.1 µM and inactive = higher.

Assays:
Assay in all cases: NCI anticancer screen, dose series, 48 h
786-0 = test system: 786-0
A498 = test system: A498
A549 = test system: A549
ACHN = test system: ACHN
BT-549 = test system: BT-549
CAKI-1 = test system: CAKI-1
CCRF-CEM = test system: CCRF-CEM
COLO 205 = test system: COLO 205
DU-145 = test system: DU-145
EKVX = test system: EKVX
HCC 2998 = test system: HCC 2998
HCT-116 = test system: HCT-116
HCT-15 = test system: HCT-15
HL-60 = test system: HL-60
HOP-62 = test system: HOP-62
HT-29 = test system: HT-29
Hs-578T = test system: Hs-578T
IGROV-1 = test system: IGROV-1
K562 = test system: K562
KM12 = test system: KM12
M14 = test system: M14
MCF7 = test system: MCF7
MDA-MB-231 = test system: MDA-MB-231
MDA-N = test system: MDA-N
MOLT-4 = test system: MOLT-4
Malme-3M = test system: Malme-3M
NCI-H226 = test system: NCI-H226
NCI-H23 = test system: NCI-H23
NCI-H460 = test system: NCI-H460
NCI-H522 = test system: NCI-H522
NCI/ADR-RES = test system: NCI/ADR-RES
OVCAR-3 = test system: OVCAR-3
OVCAR-4 = test system: OVCAR-4
OVCAR-5 = test system: OVCAR-5
OVCAR-8 = test system: OVCAR-8
PC-3 = test system: PC-3
SF-268 = test system: SF-268
SF-295 = test system: SF-295
SF-539 = test system: SF-539
SK-MEL-28 = test system: SK-MEL-28
SK-MEL-5 = test system: SK-MEL-5
SK-OV-3 = test system: SK-OV-3
SN12C = test system: SN12C
SNB-19 = test system: SNB-19
SNB-75 = test system: SNB-75
SR = test system: SR
SW-620 = test system: SW-620
T47D = test system: T47D
TK-10 = test system: TK-10
U-251 = test system: U-251
UACC-257 = test system: UACC-257
UACC-62 = test system: UACC-62
UO-31 = test system: UO-31
HOP-92 = test system: HOP-92
MDA-MB-435 = test system: MDA-MB-435
RPMI-8226 = test system: RPMI-8226
RXF 393 = test system: RXF 393
SK-MEL-2 = test system: SK-MEL-2
LOX IMVI = test system: LOX IMVI

Measured: GI50

FC(F)(F)c1cccc(COCCN2CCN(Cc3cccc(C(F)(F)F)c3)CC2)c1
16.2 µM: HCT-15
inactive: 786-0 15.3 µM | A498 14.9 µM | A549 16.2 µM | ACHN 15.7 µM | BT-549 15.6 µM | CAKI-1 17.5 µM | CCRF-CEM 14.1 µM | COLO 205 15.7 µM | DU-145 17 µM | EKVX 11.1 µM | HCC 2998 17 µM | HCT-116 14.4 µM | HL-60 36.6 µM | HOP-62 20 µM | HT-29 21.7 µM | Hs-578T 19.5 µM | IGROV-1 15.6 µM | K562 11.8 µM | KM12 18.1 µM | M14 30.1 µM | MCF7 15.7 µM | MDA-MB-231 19.3 µM | MDA-N 15.9 µM | MOLT-4 7.91 µM | Malme-3M 8.09 µM | NCI-H226 17 µM | NCI-H23 17.9 µM | NCI-H460 16.3 µM | NCI-H522 13 µM | NCI/ADR-RES 18.6 µM | OVCAR-3 20 µM | OVCAR-4 17.7 µM | OVCAR-5 16.7 µM | OVCAR-8 18.7 µM | PC-3 9.33 µM | SF-268 15.3 µM | SF-295 19.7 µM | SF-539 18 µM | SK-MEL-28 17.8 µM | SK-MEL-5 15.8 µM | SK-OV-3 17.3 µM | SN12C 18.5 µM | SNB-19 15.6 µM | SNB-75 13.5 µM | SR 23.4 µM | SW-620 13.1 µM | T47D 16.3 µM | TK-10 13.7 µM | U-251 18.1 µM | UACC-257 17.4 µM | UACC-62 15.3 µM | UO-31 12.3 µM

COc1ccccc1N1C(=O)CSC1c1c[nH]c2ccccc12 (stereo unspecified)
inactive: 786-0 > 100 µM | A498 > 100 µM | A549 > 100 µM | ACHN > 100 µM | BT-549 > 100 µM | COLO 205 > 100 µM | DU-145 > 100 µM | EKVX > 100 µM | HCC 2998 > 100 µM | HCT-116 > 100 µM | HL-60 > 100 µM | HOP-62 > 100 µM | HOP-92 > 100 µM | HT-29 > 100 µM | Hs-578T > 100 µM | IGROV-1 > 100 µM | K562 > 100 µM | KM12 > 100 µM | M14 > 100 µM | MCF7 > 100 µM | MDA-MB-231 3.69 µM | MDA-MB-435 > 100 µM | MDA-N > 100 µM | MOLT-4 > 100 µM | NCI-H226 > 100 µM | NCI-H23 > 100 µM | NCI-H460 > 100 µM | NCI/ADR-RES > 100 µM | OVCAR-3 > 100 µM | OVCAR-4 > 100 µM | OVCAR-5 > 100 µM | OVCAR-8 > 100 µM | RPMI-8226 > 100 µM | RXF 393 > 100 µM | SF-268 42.8 µM | SF-295 > 100 µM | SF-539 > 100 µM | SK-MEL-28 66.7 µM | SK-MEL-2 > 100 µM | SK-MEL-5 > 100 µM | SK-OV-3 > 100 µM | SN12C > 100 µM | SNB-19 > 100 µM | SNB-75 27.6 µM | SW-620 > 100 µM | T47D > 100 µM | TK-10 > 100 µM | U-251 > 100 µM | UACC-257 > 100 µM | UACC-62 > 100 µM | UO-31 58.1 µM
> 100 µM: HCT-15

Cc1nnc2n(c1=O)CCN2C
> 100 µM: HCT-15
inactive: 786-0 > 100 µM | A549 > 100 µM | ACHN > 100 µM | BT-549 > 100 µM | CCRF-CEM > 100 µM | COLO 205 > 100 µM | DU-145 > 100 µM | EKVX > 100 µM | HCC 2998 > 100 µM | HCT-116 > 100 µM | HL-60 > 100 µM | HOP-62 > 100 µM | HOP-92 > 100 µM | HT-29 > 100 µM | Hs-578T > 100 µM | IGROV-1 > 100 µM | K562 > 100 µM | KM12 > 100 µM | LOX IMVI > 100 µM | M14 > 100 µM | MCF7 > 100 µM | MDA-MB-231 > 100 µM | MDA-MB-435 > 100 µM | MDA-N > 100 µM | MOLT-4 > 100 µM | Malme-3M > 100 µM | NCI-H226 > 100 µM | NCI-H23 > 100 µM | NCI-H460 > 100 µM | OVCAR-3 > 100 µM | OVCAR-4 > 100 µM | OVCAR-5 > 100 µM | OVCAR-8 > 100 µM | PC-3 > 100 µM | RPMI-8226 > 100 µM | RXF 393 > 100 µM | SF-268 > 100 µM | SF-295 > 100 µM | SF-539 > 100 µM | SK-MEL-28 > 100 µM | SK-MEL-2 > 100 µM | SK-MEL-5 > 100 µM | SK-OV-3 > 100 µM | SN12C > 100 µM | SNB-19 > 100 µM | SNB-75 89.7 µM | SR > 100 µM | SW-620 > 100 µM | T47D > 100 µM | TK-10 > 100 µM | U-251 > 100 µM | UACC-62 > 100 µM | UO-31 > 100 µM

Cc1ccc(NC2=CC(=O)C(NO)c3ccccc32)cc1 (stereo unspecified)
2.79 µM: HCT-15
inactive: 786-0 5.16 µM | A498 16.3 µM | A549 3.09 µM | ACHN 2.84 µM | BT-549 3.66 µM | CAKI-1 2.5 µM | COLO 205 2.81 µM | DU-145 2.56 µM | EKVX 2.15 µM | HCC 2998 7.26 µM | HCT-116 2.47 µM | HL-60 2 µM | HOP-62 3.39 µM | HOP-92 2.7 µM | HT-29 4.35 µM | IGROV-1 1.53 µM | KM12 3.32 µM | LOX IMVI 2.93 µM | M14 2.94 µM | MCF7 2.66 µM | MDA-MB-231 2.21 µM | MDA-MB-435 1.89 µM | MDA-N 2.61 µM | MOLT-4 2.74 µM | NCI-H226 19.9 µM | NCI-H23 1.64 µM | NCI-H460 3.22 µM | NCI/ADR-RES 2.08 µM | OVCAR-4 2.99 µM | OVCAR-5 8.59 µM | OVCAR-8 1.63 µM | RXF 393 2.62 µM | SF-268 3.32 µM | SF-295 3.98 µM | SF-539 3.01 µM | SK-MEL-28 8.13 µM | SK-MEL-2 2.23 µM | SK-MEL-5 1.49 µM | SK-OV-3 10.8 µM | SN12C 3.36 µM | SNB-19 3.18 µM | SNB-75 3.37 µM | SW-620 3.24 µM | T47D 2.74 µM | TK-10 16.8 µM | U-251 3.15 µM | UACC-257 1.73 µM | UACC-62 1.51 µM | UO-31 2.82 µM
active: OVCAR-3 0.61 µM

CCOC(=O)/C(=C\Nc1c(C)n(C)n(-c2ccccc2)c1=O)C(=O)c1ccccc1
inactive: 786-0 > 100 µM | A498 > 100 µM | A549 > 100 µM | ACHN > 100 µM | BT-549 > 100 µM | CAKI-1 > 100 µM | CCRF-CEM > 100 µM | COLO 205 > 100 µM | DU-145 > 100 µM | EKVX > 100 µM | HCC 2998 > 100 µM | HCT-116 > 100 µM | HL-60 > 100 µM | HOP-62 > 100 µM | HOP-92 > 100 µM | HT-29 > 100 µM | Hs-578T > 100 µM | IGROV-1 > 100 µM | K562 > 100 µM | LOX IMVI > 100 µM | M14 > 100 µM | MCF7 > 100 µM | MDA-MB-231 > 100 µM | MDA-MB-435 > 100 µM | MDA-N > 100 µM | MOLT-4 > 100 µM | Malme-3M > 100 µM | NCI-H226 > 100 µM | NCI-H23 > 100 µM | NCI-H460 > 100 µM | NCI-H522 > 100 µM | OVCAR-3 > 100 µM | OVCAR-4 > 100 µM | OVCAR-5 > 100 µM | PC-3 > 100 µM | RPMI-8226 > 100 µM | RXF 393 > 100 µM | SF-268 > 100 µM | SF-295 > 100 µM | SF-539 > 100 µM | SK-MEL-28 > 100 µM | SK-MEL-2 > 100 µM | SK-MEL-5 > 100 µM | SK-OV-3 > 100 µM | SN12C > 100 µM | SNB-19 > 100 µM | SR > 100 µM | SW-620 > 100 µM | T47D > 100 µM | TK-10 > 100 µM | U-251 > 100 µM | UACC-257 > 100 µM | UACC-62 > 100 µM | UO-31 > 100 µM
> 100 µM: HCT-15
active: KM12 0.033 µM
